The subject of data set [1] is S. aureus (Smith strain). Briefly: Efficacy, ip dosing of mice infected with S. aureus. The data set is classed as in vivo. To be noted: suspensions in saline, 5 animals, FIG. 2. The source says:
Compounds 12, 19, 26, and 29 were given by the intraperitoneal (ip) route as suspensions in saline to mice previously infected with S. aureus (Smith strain). Vancomycin was used as a positive drug control and saline was used as a negative vehicle control.

The subject of another data set is S.aureus (Smith). Put plainly: Inhibition of bacterial growth on agar plates (MIC). In kind it is cell-based. The conditions noted are these: Staphylococcus aureus, 37° C., 24 hours. Summed up:
(§1)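 Agar dilution: compounds from DMSO or water stocks mixed into medium with 1.3% agar at 60° C; 500-1000 CFU plated, incubated 37° C for 24 hours. MIC is the lowest concentration with no colony formation.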

Another data set deals with E. fecium. The description is as above. The data set is classed as cell-based. To be noted: 37° C., 24 hours. The method in brief: as §1
A further data set has as its system B. subtilis. The data set is described as above. In kind it is cell-based. To be noted: Bacillus subtilis, 37° C., 24 hours. The method in brief: as §1
Another data set relates to E. fecalis. Described as above. The data set is classed as cell-based. To be noted: 37° C., 24 hours. Summed up:
as §1

For another data set, the target named is B.subtilis pol IIIC (Bacillus subtilis, UniProt P13267). Put plainly: biochemical. Summed up:
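Purified pol IIIC incorporating [3H]-dTMP into nicked calf-thymus DNA with Mg2+, DTT and glycerol, 10 min at 30 °C; acid-insoluble radioactivity counted, in triplicate.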

A short description of the next data set: Water solubility. In kind it is physicochemical. To be noted: 25° C. stated for Compound 35. The text has this:
The compounds described herein have increased water solubility; some of the compounds can form salts, such as with inorganic or organic acids or with alkali metal bases, thus greatly increasing their solubilities. […] The improved water solubilities are a distinct advantage in formulation and in dosing of animals for testing, and for ultimate therapeutic use in humans.

Data set [2] can be described thus: Pharmacokinetics in mice (plasma concentration by HPLC). The data set is classed as in vivo. To be noted: saline solution. The text has this: Compound 59 was given to mice in simple saline solutions by various routes—subcutaneous (sc), intravenous (iv), and orally (po). High performance liquid chromatography (HPLC) on a reverse phase C 18 column was used to monitor the concentration of the compound in animal plasma, and the results were plotted as a function of time, as shown in FIG. 1.
Tmax, time to peak concentration; Cmax, peak concentration; T½, half-life; AUC(0-t), area under the curve, from 0 to time t; AUC(0-60), area under the curve, from 0 to 60 minutes; Vd, volume of distribution; Cl, clearance.

Data set [3] concerns S. aureus (Smith strain). Put plainly: Efficacy, sc dosing of mice infected ip with S. aureus. In kind it is in vivo. The conditions noted are these: Compound 59 given sc, relative to vehicle control, FIG. 3. The source says: Compound 59 was give by the sc route to mice infected by the ip route with S. aureus (Smith strain).

Converted amounts (≈) assume the structure as drawn. Read-outs that look alike come from different tables or passages of the source. Some results are limits rather than exact numbers.

Chain of B.subtilis pol IIIC (P13267 whole entry): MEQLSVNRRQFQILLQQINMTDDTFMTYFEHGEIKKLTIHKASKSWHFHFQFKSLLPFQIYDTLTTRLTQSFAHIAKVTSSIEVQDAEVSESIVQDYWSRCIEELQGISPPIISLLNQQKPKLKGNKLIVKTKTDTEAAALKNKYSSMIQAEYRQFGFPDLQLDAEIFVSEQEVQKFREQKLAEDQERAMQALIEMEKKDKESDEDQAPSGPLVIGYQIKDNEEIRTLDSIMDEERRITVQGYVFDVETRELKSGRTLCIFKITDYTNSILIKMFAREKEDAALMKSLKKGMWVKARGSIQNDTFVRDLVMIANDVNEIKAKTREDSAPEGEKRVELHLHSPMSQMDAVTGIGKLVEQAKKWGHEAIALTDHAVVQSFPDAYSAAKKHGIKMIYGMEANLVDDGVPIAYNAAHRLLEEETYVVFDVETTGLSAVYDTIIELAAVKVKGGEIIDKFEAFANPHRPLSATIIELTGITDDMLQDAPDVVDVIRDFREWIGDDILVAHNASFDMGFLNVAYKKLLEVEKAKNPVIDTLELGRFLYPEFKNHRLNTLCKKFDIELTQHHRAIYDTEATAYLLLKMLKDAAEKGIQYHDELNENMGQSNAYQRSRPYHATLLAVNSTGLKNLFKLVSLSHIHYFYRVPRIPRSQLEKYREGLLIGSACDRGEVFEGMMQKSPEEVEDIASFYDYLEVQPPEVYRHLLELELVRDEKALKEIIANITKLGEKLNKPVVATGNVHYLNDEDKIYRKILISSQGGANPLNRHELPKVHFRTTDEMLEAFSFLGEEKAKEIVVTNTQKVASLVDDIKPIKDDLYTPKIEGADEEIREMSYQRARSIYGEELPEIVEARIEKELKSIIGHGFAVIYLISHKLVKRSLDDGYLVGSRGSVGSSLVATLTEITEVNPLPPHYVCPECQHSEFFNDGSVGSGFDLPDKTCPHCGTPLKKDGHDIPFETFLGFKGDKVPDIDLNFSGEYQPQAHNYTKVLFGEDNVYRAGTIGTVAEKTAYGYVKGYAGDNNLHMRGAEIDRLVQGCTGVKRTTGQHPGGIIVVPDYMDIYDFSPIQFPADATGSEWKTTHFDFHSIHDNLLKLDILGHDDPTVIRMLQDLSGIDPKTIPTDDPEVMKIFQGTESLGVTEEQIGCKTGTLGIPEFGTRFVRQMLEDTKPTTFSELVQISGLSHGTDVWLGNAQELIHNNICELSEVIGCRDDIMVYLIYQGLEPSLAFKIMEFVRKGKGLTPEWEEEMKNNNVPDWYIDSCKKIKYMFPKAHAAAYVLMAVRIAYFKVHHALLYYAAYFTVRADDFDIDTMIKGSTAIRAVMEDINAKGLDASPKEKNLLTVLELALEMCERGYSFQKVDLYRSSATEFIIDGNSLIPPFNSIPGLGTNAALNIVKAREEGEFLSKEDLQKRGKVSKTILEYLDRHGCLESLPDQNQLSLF

For the compound `CCc1cc(Nc2cc(=O)n(CCCCCO)c(=O)[nH]2)ccc1C` [Compound 26, 3-(5-Hydroxypentyl)-6-(3-ethyl-4-methylanilino)uracil], in the data set with S. aureus (Smith strain) [1], the animals protected was 1 of the 5.

As for `CCc1cc(Nc2cc(=O)n(CCOCCO)c(=O)[nH]2)ccc1C` [Compound 29, 3-[2-(2-Hydroxyethoxy)ethyl]-6-(3-ethyl-4-methylanilino)uracil], the MIC against S.aureus (Smith) is 5 µg/mL (≈ 15 µM); with E. fecium, 5 µg/mL (≈ 15 µM); with B. subtilis it was below 1.25 µg/mL; against E. fecalis, 5 µg/mL (≈ 15 µM). This compound came in with a Ki at B.subtilis pol IIIC of 0.125 µM. In addition, the animals protected in the data set with S. aureus (Smith strain) [1] is 4 of the 5.

In the data set “Water solubility”, `CCc1cc(Nc2cc(=O)n(CCCCN3CCOCC3)c(=O)[nH]2)ccc1C` [Compound 35, 3-[4-(N-morpholino)butyl]-6-(3-ethyl-4-methylanilino)uracil] displayed a solubility below 1 mg/mL. Also, the MIC in the data set with S.aureus (Smith) turned out to be 5 µg/mL (≈ 12.9 µM); in the data set with E. fecium, 2.5 µg/mL (≈ 6.47 µM); in the data set on B. subtilis it was 2.5 µg/mL (≈ 6.47 µM); in the data set on E. fecalis it was 5 µg/mL (≈ 12.9 µM). Also, at B.subtilis pol IIIC (truncated assay, apparent inhibitor constant, read-out: K1 B.subtilis pol IIIC), the Ki turned out to be 0.048 µM.

For `CCc1cc(Nc2cc(=O)n(CCCCN3CCOCC3)c(=O)[nH]2)ccc1C.Cl` [Compound 59, 3-[4-(N-morpholino)butyl]-6-(3-ethyl-4-methylanilino)uracil hydrochloride], the AUC(0-t) was 3900 ng·h/mL in [2] (mouse, plasma, iv, 20 mg/kg, iv, 20 mg/kg, 0-120, read-out: AUC(0-t) (converted)); 3400 ng·h/mL in data set [2] (mouse, plasma, iv, 20 mg/kg, iv, 20 mg/kg, read-out: AUC(0-60) (converted)); 6770 ng·h/mL in data set [2] (mouse, plasma, sc, 20 mg/kg, sc, 20 mg/kg, (0-180), read-out: AUC(0-t) (converted)); 3330 ng·h/mL in data set [2] (mouse, plasma, sc, 20 mg/kg, sc, 20 mg/kg, read-out: AUC(0-60) (converted)); 26900 ng·h/mL in data set [2] (mouse, plasma, sc, 200 mg/kg, sc, 200 mg/kg, (0-180), read-out: AUC(0-t) (converted)); 10600 ng·h/mL in [2] (mouse, plasma, sc, 200 mg/kg, sc, 200 mg/kg, read-out: AUC(0-60) (converted)). Further, the AUC(0-t) is 75000 ng·h/mL in data set [2] (mouse, plasma, sc, 400 mg/kg, sc, 400 mg/kg, (0-360), read-out: AUC(0-t) (converted)) and 19800 ng·h/mL in data set [2] (mouse, plasma, sc, 400 mg/kg, sc, 400 mg/kg, read-out: AUC(0-60) (converted)). Moreover, the Cmax is 27400 ng/mL in data set [2] (mouse, plasma, iv, 20 mg/kg); 4600 ng/mL in data set [2] (mouse, plasma, sc, 20 mg/kg); 15000 ng/mL in [2] (mouse, plasma, sc, 200 mg/kg); 24100 ng/mL in data set [2] (mouse, plasma, sc, 400 mg/kg). This compound showed a clearance in data set [2] (mouse, plasma, iv, 20 mg/kg) of 77 mL/min/kg. The half-life in data set [2] (mouse, plasma, iv, 20 mg/kg) turned out to be 39 min; in data set [2] (mouse, plasma, sc, 20 mg/kg), 149 min; in [2] (mouse, plasma, sc, 200 mg/kg), 132 min; in data set [2] (mouse, plasma, sc, 400 mg/kg) it was 373 min. Further, the Tmax in data set [2] (mouse, plasma, iv, 20 mg/kg, ncm fit) was 0 min; in [2] (mouse, plasma, sc, 20 mg/kg), 5 min; in data set [2] (mouse, plasma, sc, 200 mg/kg), 30 min; in data set [2] (mouse, plasma, sc, 400 mg/kg) it was 30 min. The Vd turned out to be 4.3 L/kg in data set [2] (mouse, plasma, iv, 20 mg/kg, read-out: Vd) and 6.5 L/kg in data set [2] (sc, 20 mg/kg). In addition, the bioavailability in [2] (mouse, plasma, po, read-out: oral bioavailability (absorbed from the po route)) is around 50%. The compound also registered a Cl in data set [2] (sc, 20 mg/kg) of 30.2 mL/min/kg. Further, the “absorption by the sc route” value in [2] (sc) is “completely absorbed”. Further, the “survival of infected mice” value in the data set with S. aureus (Smith strain) [3] was “prolonged the survival time of mice relative to vehicle control”. Further, the solubility in “Water solubility” was above 60 mg/mL.

With `CCc1cc(Nc2cc(=O)n(CCCCCN3CC=C(c4ccc(Cl)cc4)CC3)c(=O)[nH]2)ccc1C` [Compound 76, 3-{5-[1-(4-(4-chlorophenyl)-1,2,3,6-tetrahydropyridinyl)]pentyl}-6-(3-ethyl-4-methylanilino)uracil], the MIC with S.aureus (Smith) worked out at 5 µg/mL (≈ 9.86 µM); against E. fecium it was 80 µg/mL (≈ 158 µM); against B. subtilis, 5 µg/mL (≈ 9.86 µM); in the data set on E. fecalis, 80 µg/mL (≈ 158 µM). The Ki on B.subtilis pol IIIC was determined as 0.087 µM.

`CCc1cc(Nc2cc(=O)n(CCCCCNC(=O)c3cc4ccccc4s3)c(=O)[nH]2)ccc1C` [Compound 77, 3-[5-(2-benzo[b]thiophenecarboxamido)pentyl]-6-(3-ethyl-4-methylanilino)uracil]: the MIC against S.aureus (Smith), in the data set on E. fecium, in the data set with B. subtilis and in the data set with E. fecalis was 80 µg/mL (≈ 163 µM) each time. Also, the Ki on B.subtilis pol IIIC is 0.48 µM.

As for `CCOC(=O)C1CN(CCCCCn2c(=O)cc(Nc3ccc(C)c(CC)c3)[nH]c2=O)CCC1=O` (centres unmarked) [Compound 78, 3-{5-(3-ethoxycarbonyl-4-oxopiperidinyl)pentyl}-6-(3-ethyl-4-methylanilino)uracil], the MIC against S.aureus (Smith), against E. fecium, against B. subtilis and in the data set on E. fecalis was 80 µg/mL (≈ 165 µM) each time. Further, the Ki on B.subtilis pol IIIC is 0.25 µM.

With `CCc1cc(Nc2cc(=O)n(CCCCCNC[C@@H]3CCN(C(=O)OC(C)(C)C)C3)c(=O)[nH]2)ccc1C` [Compound 79, 3(S)-{5-[(N-tert-butoxycarbonylpyrrolidin-3-yl)methylamino]pentyl}-6-(3-ethyl-4-methylanilino)uracil], the MIC stood at 20 µg/mL (≈ 38.9 µM) in the data set on S.aureus (Smith), 40 µg/mL (≈ 77.9 µM) against E. fecium, 20 µg/mL (≈ 38.9 µM) against B. subtilis and 40 µg/mL (≈ 77.9 µM) in the data set on E. fecalis. Moreover, on B.subtilis pol IIIC, the Ki worked out at 0.12 µM.

As to `CCc1cc(Nc2cc(=O)n(CCCCN3CC=C(c4ccc5c(c4)OCO5)CC3)c(=O)[nH]2)ccc1C` [Compound 80, 3-{4-[4-(3,4-dioxomethylenephenyl-1,2,3,6-tetrahydropyridinyl)]butyl}-6-(3-ethyl-4-methylanilino)uracil], the MIC in the data set with S.aureus (Smith) came to 10 µg/mL (≈ 19.9 µM); against E. fecium it was 5 µg/mL (≈ 9.95 µM); in the data set with B. subtilis it was 2.5 µg/mL (≈ 4.97 µM); against E. fecalis, 5 µg/mL (≈ 9.95 µM). Moreover, the Ki on B.subtilis pol IIIC was 0.024 µM.

For the compound `CCc1cc(Nc2cc(=O)n(CCCCN3CC=C(c4ccc(C)c(C)c4)CC3)c(=O)[nH]2)ccc1C` [Compound 81], the minimal inhibitory concentration (MIC) is 20 µg/mL (≈ 41.1 µM) against S.aureus (Smith), 10 µg/mL (≈ 20.5 µM) in the data set on E. fecium, 1.25 µg/mL (≈ 2.57 µM) against B. subtilis and 10 µg/mL (≈ 20.5 µM) in the data set with E. fecalis. In addition, the Ki at B.subtilis pol IIIC worked out at 0.034 µM.

Consider `CCc1cc(Nc2cc(=O)n(CCCCN3CC=C(c4ccc(F)c(C)c4)CC3)c(=O)[nH]2)ccc1C` [Compound 82], for which the MIC came to 20 µg/mL (≈ 40.8 µM) with S.aureus (Smith), 20 µg/mL (≈ 40.8 µM) against E. fecium, 10 µg/mL (≈ 20.4 µM) against B. subtilis and 20 µg/mL (≈ 40.8 µM) against E. fecalis. This compound yielded a Ki on B.subtilis pol IIIC of 0.029 µM.

Turning to `CCc1cc(Nc2cc(=O)n(CCCCO)c(=O)[nH]2)ccc1C` [HB-EMAU, 3-(4-hydroxybutyl)-6-(3-ethyl-4-methylanilino)uracil, reference compound], the MIC was 5 µg/mL (≈ 15.8 µM) against S.aureus (Smith), 5 µg/mL (≈ 15.8 µM) in the data set with E. fecium, below 1.25 µg/mL against B. subtilis and 5 µg/mL (≈ 15.8 µM) in the data set on E. fecalis. In addition, the Ki at B.subtilis pol IIIC came out at 0.07 µM.

`CN[C@H](CC(C)C)C(=O)N[C@H]1C(=O)N[C@@H](CC(N)=O)C(=O)N[C@H]2C(=O)N[C@H]3C(=O)N[C@H](C(=O)N[C@H](C(=O)O)c4cc(O)cc(O)c4-c4cc3ccc4O)[C@H](O)c3ccc(c(Cl)c3)Oc3cc2cc(c3O[C@@H]2O[C@H](CO)[C@@H](O)[C@H](O)[C@H]2O[C@H]2C[C@](C)(N)[C@H](O)[C@H](C)O2)Oc2ccc(cc2Cl)[C@H]1O` [Vancomycin, reference compound]: in the data set on S. aureus (Smith strain) [3], the “survival of infected mice” value was “protected the animals from this infection”. Further, the animals protected entry with S. aureus (Smith strain) [1] was “protected all animals”.
